Data on two compounds can be found in patent publication US20120308570A1, “METHODS FOR TREATING DISEASES” (priority 2009, published 2012).

Holding throughout (type): cell-based, mouse
For one data set, the system named is Spsb1 mRNA. The data set is described as follows: Spsb1 knockdown in BMDM by Q-PCR. The following applies: 10 ng/ml LPS 4 h, compared to non-sense control shRNA, p<0.0001. As for the experimental part: Bone marrow-derived macrophages were generated as described and replated at 1.0×10^6 cells/well on 6-well plates (Costar) in DME containing 10% FCS and 20% L-cell conditioned media. The following day, triplicate cultures were incubated with murine IFNγ (10 ng/ml) and LPS (20 ng/ml), unless otherwise indicated. Total cellular RNA was isolated using the RNeasy kit (QIAGEN, Valencia, Calif.) and first strand cDNA synthesis performed using Superscript II RNASE H— reverse transcriptase (Invitrogen, Carlsbad, Calif.) according to the manufacturer's instructions. Real-time PCR was performed on an ABI Prism 7900HT sequence detection system (Applied Biosystems, Foster City, Calif.). Cycling conditions were as follows: initial denaturation (95° C. for 15 min), followed by 40 cycles of 94° C. for 15 s, 50° C. (SSB-1, -4), 60° C. (SSB-2, -3) or 49° C. (GAPDH) for 30 s and 72° C. for 15 s with a transition rate of 20° C./s and a single fluorescence measurement, melting curve program (60° C.-95° C., with a heating rate of 0.1° C./s and continuous fluorescence measurement) and a final cooling step to 40° C. All PCR reactions were performed using the QuantiTect SYBR Green PCR Kit (QIAGEN) in 10 μl reactions containing […] of forward and reverse primers, 5 μl of QuantiTect Master Mix and 4 μl of cDNA (diluted 1 in 5). […]

The subject of a further data set is NO production in BMDM. The data set is described as follows: Nitric oxide production in shRNA infected BMDM (Griess assay). As for the experimental part:
As a measure of nitric oxide production, 100 μl of culture supernatants were assayed for nitrite by reaction with 10 μl of Griess reagent A (1% sulfanilamide in 5% phosphoric acid) for 10 min at room temperature, followed by the addition of 10 μl Griess reagent B [0.14% N-(1-naphthyl)ethylenediamine dihydrochloride], and nitrite content determined essentially as described (Scott et al., 2000).
(§1) Oligonucleotides targeting SPSB 1 ([…] (SEQ ID NO:84)) were designed as previously described (27). shRNAmir constructs were created by annealing the oligonucleotides in 5× annealing buffer (0.5 M potassium acetate, 0.01 M magnesium acetate and 0.15 M HEPES pH 7.4) for 5 min at 95° C., followed by incubation for 10 min at 80° C. and a 5-7 h ramp from 80° C. to 4° C. (reducing by 0.5° C. every 2.5 min). Annealed oligonucleotides were subsequently subcloned into the LMP vector (Dickins et al; 2005 & 2006). Non-sense shRNAmir and luciferase control constructs in the LMS vector were a kind gift from Dr. Marnie Blewitt (Majewski et al, 2008) and Dr Ross Dickins (unpublished data) respectively. To create retrovirus, 293T cells were transfected as described previously (Majewski et al, 2008). The medium was replaced with DMEM containing 10% FBS and 20% L-cell conditioned medium 24 h after transfection and viral supernatants harvested the following day. Total bone marrow was collected and non-adherent haematopoietic cells were harvested by centrifugation and red blood cells removed by washing in red cell removal buffer (154.4 mM NH4Cl, 0.1 mM EDTA, 12 mM. NaHCO3). Retroviral supernatants were applied to culture dishes pre-treated with 32 μg/ml RetroNectin (Takara Biosciences, Shiga, Japan) and centrifuged for 1 h at 4000 g at 4° C. Bone marrow cells were infected by co-culturing with the virus in the presence of 4 μg/ml 30 polybrene-containing medium for 24 h. […]
Using a Griess assay, NO production was measured in response to 20 ng/ml LPS and 25 μg/ml PolyIC in BMDM infected with non-sense or Spsb1 shRNA at 24 h and 48 h. […]
A general note: The Griess reaction detects nitrite, a stable product of nitric oxide.

Another data set has as its system iNOS protein in BMDM. The data set is described as follows: iNOS expression in shRNA infected BMDM (Western blot). The method, then:
Bone marrow-derived macrophages were generated as described and re-plated at 1.0×10^6 cells/well on 6-well plates (Costar) in DME containing 10% FCS and 20% L-cell conditioned media. Cells were incubated with IFNγ and LPS as described, and lysed in KALB lysis buffer (Nicholson et al., 1995) containing protease inhibitors (Complete Cocktail tablets, Roche), 1 mM phenylmethylsulphonyl fluoride, 1 mM Na3VO4 and 1 mM NaF. Proteins were immunoprecipitated using anti-Flag antibody conjugated to Sepharose (M2; EASTMAN KODAK). Proteins were separated by sodium dodecyl sulphatepolyacrylamide gel electrophoresis (SDS-PAGE) under reducing conditions and electrophoretically transferred to Biotrace PVDF membranes (Pall Corp. Ann Arbor, Mich.). Membranes were blocked overnight in 10% w/v skim milk and incubated with primary antibody for 2 h. Antibody binding was visualized with either peroxidase-conjugated goat anti-rat immunoglobulin (Southern Biotech) or peroxidase-conjugated sheep anti-rabbit immunoglobulin (Chemicon, Melbourne, Australia), and the enhanced chemiluminescence (ECL) system (Amersham, Little Chalfont, Buckinghamshire, UK). To re-blot, the membrane was first stripped of antibodies in 0.1 M glycine, pH 2.9.
as §1, with “C.” for “C. Bone marrow cells were infected by co-culturing with the virus in the presence of 4 μg/ml 30 polybrene-containing medium for 24 h.”
To analyse the kinetics of iNOS induction in BMDM infected with an Spsb1 shRNA construct cells were stimulated with 100 ng/ml LPS or 25 μg/ml PolyIC for various times, then lysed and iNOS expression analysed by Western blot. […]
Background: A western blot detects proteins with antibodies after separation by electrophoresis.

Data set [1] concerns iNOS degradation in Ssb-1T/+ and Ssb-2T/+ BMDM. The data set is described as follows: iNOS degradation post-wash in SSB transgenic BMDM (Western blot). The following applies: MG-132 10 μM post-wash. The method, then: FIG. 11. SSB-1 and SSB-2 regulation of iNOS expression is dependent on the proteasome. BMDM from (A) littermate controls (Ssb-1^+/+) and SSB-1-transgenic mice (Ssb-1^T/+) or (B) Ssb-1^+/+ and SSB-2-transgenic mice (Ssb-2^T/+) were incubated with IFNγ and LPS (20 ng/ml) for 16 h, washed, replenished with fresh medium with (+) or without (−) the proteasomal inhibitor MG-132 (10 μM) and lysed at the indicated times post-wash. Proteins were separated by SDS-PAGE and analysed by Western blot using anti-iNOS antibodies. Equivalent protein loading was confirmed by stripping and reprobing the membrane with anti-tubulin antibodies.
Bone marrow-derived macrophages were generated as described and re-plated at 1.0×10^6 cells/well on 6-well plates (Costar) in DME containing 10% FCS and 20% L-cell conditioned media. Cells were incubated with IFNγ and LPS as described, and lysed in KALB lysis buffer (Nicholson et al., 1995) containing protease inhibitors (Complete Cocktail tablets, Roche), 1 mM phenylmethylsulphonyl fluoride, 1 mM Na3VO4 and 1 mM NaF. Proteins were immunoprecipitated using anti-Flag antibody conjugated to Sepharose (M2; EASTMAN KODAK). Proteins were separated by sodium dodecyl sulphatepolyacrylamide gel electrophoresis (SDS-PAGE) under reducing conditions and electrophoretically transferred to Biotrace PVDF membranes (Pall Corp. Ann Arbor, Mich.). […]

Peptide text beside a SMILES is read from it. * marks the point of attachment. Cbz = O=C(OCc1ccccc1)*

In the case of “Spsb1 shRNA: retroviral shRNAmir construct targeting SPSB1, CCAGATGCAGAGAATAAACTA (SEQ ID NO:84), in LMP vector”, in the data set on Spsb1 mRNA, the Spsb1 expression entry is on record as “significantly reduced”. Moreover, the NO production result was “increase” in the data set with NO production in BMDM (24 h, LPS and PolyIC, compared to non-sense); “significant increase” in the data set with NO production in BMDM (48 h, LPS, p=0.0446); “increase” in the data set with NO production in BMDM (48 h, PolyIC). For the same compound, in the data set on iNOS protein in BMDM (20 ng/ml LPS or 25 μg/ml PolyIC overnight, stimulus removed), the “kinetics of iNOS clearance” value was “essentially unchanged”. In the data set with iNOS protein in BMDM (20 ng/ml LPS or 25 μg/ml PolyIC overnight, stimulus removed, compared to non-sense), the “iNOS amount in degradation experiment” value was “increased amount of iNOS”. Also, in the data set on iNOS protein in BMDM (100 ng/ml LPS or 25 μg/ml PolyIC), the “iNOS protein amount during induction timecourse” value is listed as “more iNOS protein”. Further, the “time of first observed iNOS expression post-treatment” value in the data set on iNOS protein in BMDM (100 ng/ml LPS or 25 μg/ml PolyIC, non-sense shRNA control 8 h) was 6 h.

Consider `CC(C)C[C@@H](C=O)NC(=O)[C@H](CC(C)C)NC(=O)[C@H](CC(C)C)NC(=O)OCc1ccccc1` [MG-132] (Cbz-Leu-Leu-Leu-aldehyde), for which the “effect on enhanced iNOS degradation” value in data set [1] is given as “abrogated”.
